According to patent US20120178766A1, “FUROPYRIMIDINEDIONE DERIVATIVES AS TRPAI MODULATORS” (priority 2009, published 2012):

Key:
human TRPA1 = target: T1, human TRPA1 (Homo sapiens, UniProt O75762); assay: 45Calcium uptake assay: inhibition of AITC induced cellular uptake of radioactive calcium, human TRPA1 expressing CHO cells; format: cell-based; settings: AITC 30 μM; for inhibition at 1 µM: 1.0 μM compound, read-out: human TRPA1 Percentage inhibition at 1.0 μM; for inhibition at 10 µM: 10.0 μM compound, read-out: human TRPA1 Percentage inhibition at 10.0 μM; for IC50: class symbols
T1 construct: expressed in transfected cells; host or cells: CHO cells (G-418 selection)
Source text: The illustrative examples of the present invention are screened for TRPA1 activity according to a modified procedure described in (a) Tóth, A. et al. Life Sciences, 2003, 73, 487-498. (b) McNamara C, R. et al, Proc. Natl. Acad. Sci. U.S.A., 2007, 104, 13525-13530. The screening of the compounds can be carried out by other methods and procedures known to persons skilled in the art.
(§1) Screening for TRPA1 Antagonist Using the ^45Calcium Uptake Assay:
(§2) The inhibition of TRPA1 receptor activation was measured as inhibition of allyl isothiocyanate (AITC) induced cellular uptake of radioactive calcium.
Test compounds were dissolved in 100% DMSO to prepare 10 mM stock and then diluted using plain medium with 0.1% BSA and 1.8 mM CaCl2 to get the desired concentration. The final concentration of DMSO in the reaction was 0.5% (v/v). Human TRPA1 expressing CHO cells were grown in F-12 DMEM medium with 10% FBS, 1% penicillin-streptomycin solution, and 400 μg/ml of G-418. Rat TRPA1 expressing CHO cells were grown in F-12 DMEM medium with 10% FBS, 1% penicillin-streptomycin solution, and 400 μg/ml of Zeocin. Cells were seeded 24 h prior to the assay in 96 well plates so as to get ˜50,000 cells per well on the day of experiment. Cells were treated with the test compounds for 10 minutes followed by the addition of AITC at a final concentration of 30 μM (for human TRPA1) and/or 10 μM (for rat TRPA1) and 5 μCi/ml ^45Ca^+2 for 3 minutes. Cells were washed and lysed using a buffer containing 1% Triton X-100, 0.1% deoxycholate and 0.1% SDS. Radioactivity in the lysate was measured in a Packard TopCount after addition of liquid scintillant. (Toth et al, Life Sciences (2003) 73, 487-498; McNamara C R et al, Proceedings of the National Academy of Sciences, (2007) 104, 13525-13530).
(§3) Concentration response curves were plotted as a % of maximal response obtained in the absence of test antagonist. IC50 values can be calculated from concentration response curve by nonlinear regression analysis using GraphPad PRISM software.

rat TRPA1 = target: T2, rat TRPA1 (Rattus norvegicus, UniProt Q6RI86); assay: 45Calcium uptake assay: inhibition of AITC induced cellular uptake of radioactive calcium, rat TRPA1 expressing CHO cells; format: cell-based; settings: AITC 10 μM; for inhibition at 10 µM: 10.0 μM compound, read-out: rat TRPA1 Percentage inhibition at 10.0 μM; for inhibition at 1 µM: read-out: rat TRPA1 Percentage inhibition; for IC50: class symbols
T2 construct: expressed in transfected cells; host or cells: CHO cells (Zeocin selection)
Description: as §1, §2
Test compounds were dissolved in 100% DMSO to prepare 10 mM stock and then diluted using plain medium with 0.1% BSA and 1.8 mM CaCl2 to get the desired concentration. The final concentration of DMSO in the reaction was 0.5% (v/v). […] Rat TRPA1 expressing CHO cells were grown in F-12 DMEM medium with 10% FBS, 1% penicillin-streptomycin solution, and 400 μg/ml of Zeocin. […] Cells were treated with the test compounds for 10 minutes followed by the addition of AITC at a final concentration of 30 μM (for human TRPA1) and/or 10 μM (for rat TRPA1) and 5 μCi/ml ^45Ca^+2 for 3 minutes. Cells were washed and lysed using a buffer containing 1% Triton X-100, 0.1% deoxycholate and 0.1% SDS. Radioactivity in the lysate was measured in a Packard TopCount after addition of liquid scintillant.
as §3

T2 sequence (Q6RI86 whole entry): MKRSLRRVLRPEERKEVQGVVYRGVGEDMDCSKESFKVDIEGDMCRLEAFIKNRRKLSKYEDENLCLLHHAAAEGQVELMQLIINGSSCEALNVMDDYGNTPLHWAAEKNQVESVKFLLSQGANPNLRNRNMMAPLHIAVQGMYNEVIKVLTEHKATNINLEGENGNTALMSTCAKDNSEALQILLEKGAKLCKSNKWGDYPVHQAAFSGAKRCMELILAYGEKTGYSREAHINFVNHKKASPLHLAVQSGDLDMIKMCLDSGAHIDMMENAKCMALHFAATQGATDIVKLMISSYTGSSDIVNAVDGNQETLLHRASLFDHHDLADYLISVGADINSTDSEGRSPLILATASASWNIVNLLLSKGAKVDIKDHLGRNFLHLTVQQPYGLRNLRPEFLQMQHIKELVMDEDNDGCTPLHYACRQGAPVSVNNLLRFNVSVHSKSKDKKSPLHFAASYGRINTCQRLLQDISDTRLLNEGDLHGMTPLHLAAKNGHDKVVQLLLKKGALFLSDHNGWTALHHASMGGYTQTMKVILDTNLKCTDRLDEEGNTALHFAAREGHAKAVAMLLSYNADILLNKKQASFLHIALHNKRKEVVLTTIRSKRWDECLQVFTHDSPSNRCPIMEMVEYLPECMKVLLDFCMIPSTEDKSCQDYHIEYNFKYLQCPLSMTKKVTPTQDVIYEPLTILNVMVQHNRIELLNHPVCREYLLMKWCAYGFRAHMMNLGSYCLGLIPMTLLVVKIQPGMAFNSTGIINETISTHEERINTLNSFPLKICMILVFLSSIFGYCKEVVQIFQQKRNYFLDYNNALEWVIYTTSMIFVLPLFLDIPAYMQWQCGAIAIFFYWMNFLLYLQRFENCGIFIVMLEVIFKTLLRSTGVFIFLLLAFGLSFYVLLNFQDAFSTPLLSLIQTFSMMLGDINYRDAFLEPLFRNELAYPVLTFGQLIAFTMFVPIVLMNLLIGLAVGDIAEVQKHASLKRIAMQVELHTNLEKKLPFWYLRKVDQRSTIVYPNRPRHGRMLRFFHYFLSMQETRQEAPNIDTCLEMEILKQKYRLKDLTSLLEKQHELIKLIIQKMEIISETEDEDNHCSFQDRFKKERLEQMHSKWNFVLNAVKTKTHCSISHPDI
T1 sequence (O75762 whole entry): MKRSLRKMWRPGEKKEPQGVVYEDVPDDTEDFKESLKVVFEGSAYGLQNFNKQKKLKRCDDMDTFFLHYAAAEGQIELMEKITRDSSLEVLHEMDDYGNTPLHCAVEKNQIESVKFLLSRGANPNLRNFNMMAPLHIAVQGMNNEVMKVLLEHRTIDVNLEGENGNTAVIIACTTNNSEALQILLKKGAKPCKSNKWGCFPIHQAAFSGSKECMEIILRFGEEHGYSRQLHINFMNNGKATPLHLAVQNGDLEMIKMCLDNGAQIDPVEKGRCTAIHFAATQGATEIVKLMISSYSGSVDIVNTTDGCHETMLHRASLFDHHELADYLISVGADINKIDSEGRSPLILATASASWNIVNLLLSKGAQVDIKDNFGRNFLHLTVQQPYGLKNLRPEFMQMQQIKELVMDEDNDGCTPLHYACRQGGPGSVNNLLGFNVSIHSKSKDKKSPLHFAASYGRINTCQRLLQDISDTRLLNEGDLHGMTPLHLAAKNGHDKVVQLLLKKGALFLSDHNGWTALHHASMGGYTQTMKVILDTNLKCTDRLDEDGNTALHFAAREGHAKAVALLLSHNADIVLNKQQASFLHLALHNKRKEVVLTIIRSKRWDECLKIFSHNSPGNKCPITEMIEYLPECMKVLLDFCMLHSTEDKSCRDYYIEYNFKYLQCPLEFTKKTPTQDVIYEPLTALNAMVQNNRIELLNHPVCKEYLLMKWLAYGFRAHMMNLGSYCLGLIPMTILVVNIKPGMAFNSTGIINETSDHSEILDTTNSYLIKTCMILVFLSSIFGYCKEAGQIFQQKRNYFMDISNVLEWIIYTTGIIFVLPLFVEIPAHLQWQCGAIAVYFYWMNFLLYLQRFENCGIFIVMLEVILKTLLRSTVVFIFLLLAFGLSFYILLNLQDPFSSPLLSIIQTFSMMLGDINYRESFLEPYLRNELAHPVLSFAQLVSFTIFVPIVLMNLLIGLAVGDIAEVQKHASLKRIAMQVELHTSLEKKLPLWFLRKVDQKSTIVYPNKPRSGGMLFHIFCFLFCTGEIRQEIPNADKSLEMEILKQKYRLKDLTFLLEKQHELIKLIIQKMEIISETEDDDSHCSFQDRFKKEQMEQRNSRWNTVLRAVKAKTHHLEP

| SMILES | inhibition at 1 µM (human TRPA1) [%] | inhibition at 10 µM (human TRPA1) [%] | IC50 (human TRPA1) [nM] | inhibition at 10 µM (rat TRPA1) [%] | inhibition at 1 µM (rat TRPA1) [%] | IC50 (rat TRPA1) [nM] |
| --- | --- | --- | --- | --- | --- | --- |
| Cn1c(=O)c2c(CC(=O)Nc3nc(-c4cc(F)c(C(F)(F)F)c(F)c4)cs3)coc2n(C)c1=O [Example 36, N1-{4-[3,5-Difluoro-4-(trifluoromethyl)phenyl]-1,3-thiazol-2-yl}-2-(1,3-dimethyl-2,4-dioxo-1,2,3,4-tetrahydrofuro[2,3-d]pyrimidin-5-yl)acetamide] | 99.7 | 99.6 | < 50 | 100 | 100 | 50 to 100 |
| Cn1c(=O)c2c(CC(=O)Nc3nc(-c4cc(F)c(OC(F)F)c(F)c4)cs3)coc2n(C)c1=O [Example 37, N1-{4-[3,5-Difluoro-4-(difluoromethoxy)phenyl]-1,3-thiazol-2-yl}-2-(1,3-dimethyl-2,4-dioxo-1,2,3,4-tetrahydrofuro[2,3-d]pyrimidin-5-yl)acetamide] | 99.9 | 99.7 | < 50 | 100 | 100 | 50 to 100 |
| Cn1c(=O)c2c(CC(=O)Nc3nc(-c4cc(Cl)c(OC(F)F)c(Cl)c4)cs3)coc2n(C)c1=O [Example 38, N1-{4-[3,5-Dichloro-4-(difluoromethoxy)phenyl]-1,3-thiazol-2-yl}-2-(1,3-dimethyl-2,4-dioxo-1,2,3,4-tetrahydrofuro[2,3-d]pyrimidin-5-yl)acetamide] | 99.8 | 99.9 | < 50 | 100 | 67 | > 100 |
| Cn1c(=O)c2c(CC(=O)Nc3nc(-c4cc(F)c(OCC5CC5)c(F)c4)cs3)coc2n(C)c1=O [Example 39, N1-{4-[4-(Cyclopropylmethoxy)-3,5-difluorophenyl]-1,3-thiazol-2-yl]-2-(1,3-dimethyl-2,4-dioxo-1,2,3,4-tetrahydrofuro[2,3-d]pyrimidin-5-yl)acetamide] | 94.2 | 98.7 | < 50 |  |  | > 100 |
| CC(C)COc1c(F)cc(-c2csc(NC(=O)Cc3coc4c3c(=O)n(C)c(=O)n4C)n2)cc1F [Example 40, N1-{4-(3,5-Difluoro-4-isobutoxyphenyl)-1,3-thiazol-2-yl}2-(1,3-dimethyl-2,4-dioxo-1,2,3,4-tetrahydrofuro[2,3-d]pyrimidin-5-yl)acetamide] | 93.2 | 99.2 | < 50 | 99.6 | 99.2 | < 50 |
| CC(C)COc1c(Cl)cc(-c2csc(NC(=O)Cc3coc4c3c(=O)n(C)c(=O)n4C)n2)cc1Cl [Example 41, N1-[4-(3,5-Dichloro-4-isobutoxyphenyl)-1,3-thiazol-2-yl]-2-(1,3-dimethyl-2,4-dioxo-1,2,3,4-tetrahydrofuro[2,3-d]pyrimidin-5-yl)acetamide] | 99.6 | 100 | < 50 | 100 | 99.5 | < 50 |
| Cn1c(=O)c2c(CC(=O)Nc3nc(-c4cc(F)c(OCC(C)(C)C)c(F)c4)cs3)coc2n(C)c1=O [Example 42, N1-{4-[3,5-Difluoro-4-(2,2-dimethylpropoxy)phenyl]-1,3-thiazol-2-yl}2-(1,3-dimethyl-2,4-dioxo-1,2,3,4-tetrahydrofuro[2,3-d]pyrimidin-5-yl)acetamide] | 96.1 | 99.9 | < 50 |  |  | < 50 |
| Cn1c(=O)c2c(CC(=O)Nc3nc(-c4cc(Cl)c(OCC(C)(C)C)c(Cl)c4)cs3)coc2n(C)c1=O [Example 43, N1-{4-[3,5-Dichloro-4-(2,2-dimethylpropoxy)phenyl]-1,3-thiazol-2-yl}-2-(1,3-dimethyl-2,4-dioxo-1,2,3,4-tetrahydrofuro[2,3-d]pyrimidin-5-yl)acetamide] | 99.2 | 99.7 | < 50 | 100 | 89.2 | 50 to 100 |
| Cn1c(=O)c2c(CC(=O)Nc3nc(-c4cc(F)c(OCC(C)(C)C)c(Cl)c4)cs3)coc2n(C)c1=O [Example 44, N1-{4-[3-Chloro-5-fluoro-4-(2,2-dimethylpropoxy)phenyl]-1,3-thiazol-2-yl}-2-(1,3-dimethyl-2,4-dioxo-1,2,3,4-tetrahydrofuro[2,3-d]pyrimidin-5-yl)acetamide] | 100 | 99.5 | < 50 | 99.2 | 71 | < 50 |
| Cn1c(=O)c2c(CC(=O)Nc3nc(-c4cc(F)c(OCC(F)(F)F)c(F)c4)cs3)coc2n(C)c1=O [Example 46, N1-{4-[3,5-Difluoro-4-(2,2,2-trifluoroethoxy)phenyl]-1,3-thiazol-2-yl}-2-(1,3-dimethyl-2,4-dioxo-1,2,3,4-tetrahydrofuro[2,3-d]pyrimidin-5-yl)acetamide] | 99.8 | 100 | < 50 | 99.5 | 96.1 | 50 to 100 |

Next, values leading:

| inhibition at 1 µM (human TRPA1) [%] | inhibition at 10 µM (human TRPA1) [%] | IC50 (human TRPA1) [nM] | inhibition at 10 µM (rat TRPA1) [%] | inhibition at 1 µM (rat TRPA1) [%] | IC50 (rat TRPA1) [nM] | SMILES |
| --- | --- | --- | --- | --- | --- | --- |
| 97.4 | 100 | < 50 | 100 | 97.1 | > 100 | Cn1c(=O)c2c(CC(=O)Nc3nc(-c4ccc(OCC(F)(F)F)c(F)c4)cs3)coc2n(C)c1=O [Example 30, N1-{4-[3-Fluoro-4-(2,2,2-trifluoroethoxy)phenyl]-1,3-thiazol-2-yl}2-(1,3-dimethyl-2,4-dioxo-1,2,3,4-tetrahydrofuro[2,3-d]pyrimidin-5-yl)acetamide] |
| 98.3 | 99.8 | < 50 | 100 | 96.8 | 50 to 100 | Cn1c(=O)c2c(CC(=O)Nc3nc(-c4ccc(OCC(F)(F)F)c(Cl)c4)cs3)coc2n(C)c1=O [Example 31, N1-{4-[3-Chloro-4-(2,2,2-trifluoroethoxy)phenyl]-1,3-thiazol-2-yl}2-(1,3-dimethyl-2,4-dioxo-1,2,3,4-tetrahydrofuro[2,3-d]pyrimidin-5-yl)acetamide] |
| 99.8 | 99.5 | < 50 | 100 | 85.2 | < 50 | Cn1c(=O)c2c(CC(=O)Nc3nc(-c4ccc(OCC(F)(F)F)c(Br)c4)cs3)coc2n(C)c1=O [Example 32, N1-{4-[3-Bromo-4-(2,2,2-trifluoroethoxy)phenyl]-1,3-thiazol-2-yl}2-(1,3-dimethyl-2,4-dioxo-1,2,3,4-tetrahydrofuro[2,3-d]pyrimidin-5-yl)acetamide] |
| 97 | 99.7 | < 50 | 99.3 | 91 | 50 to 100 | Cn1c(=O)c2c(CC(=O)Nc3nc(-c4ccc(Cl)c(Cl)c4Cl)cs3)coc2n(C)c1=O [Example 34, N1-[4-(2,3,4-Trichlorophenyl)-1,3-thiazol-2-yl]-2-(1,3-dimethyl-2,4-dioxo-1,2,3,4-tetrahydrofuro[2,3-d]pyrimidin-5-yl)acetamide] |
| 99.8 | 98.4 | < 50 |  |  | < 50 | Cn1c(=O)c2c(CC(=O)Nc3nc(-c4ccc(F)c(C(F)(F)F)c4F)cs3)coc2n(C)c1=O [Example 35, N1-{4-[2,4-Difluoro-3-(trifluoromethyl)phenyl]-1,3-thiazol-2-yl}2-(1,3-dimethyl-2,4-dioxo-1,2,3,4-tetrahydrofuro[2,3-d]pyrimidin-5-yl)acetamide] |
